US20020137929A1, “1 - (3-heterocyclylphenyl) isothiourea, -isourea, -guanidine and -amidine herbicidal agents” (Intellectual Property Department, BASF Aktiengesellschaft, priority 1998, published 2002)

Legend:
GALAP (Galium) = experiment: Postemergence herbicidal evaluation; type: in vivo, Galium aparine; conditions: postemergence
Procedure, shortened: (§1)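 Herbicidal effect was judged by eye on a 0–9 scale covering stand, vigor, deformity, size and chlorosis, compared with controls, four to five weeks after seedlings about two weeks old were sprayed (40 psi, ~0.0156–0.500 kg/ha).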

[1] = system: CHEAL (Lambsquarters, Common); experiment: Preemergence herbicidal evaluation; type: in vivo, Chenopodium album; conditions: rated 4-5 weeks after treatment, rating scale 0-9
Procedure, shortened: (§2)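 Steps: mix seeds into potting soil; plant atop ~1 inch soil; spray compound in aqueous acetone (~0.0156-0.500 kg/ha equivalent); maintain in greenhouse with watering; rate visually 0-9 versus control at 4-5 weeks.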

CYPSE (Flatsedge) = experiment: Preemergence weed control under flooded paddy conditions; type: in vivo, Cyperus serotinus; conditions: rated 3-4 weeks after treatment
Procedure, shortened: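 Silt loam, seeds in top 0.5 cm; flood held 1.5-3 cm; test cpd as acetone/water 50/50 into flood water, ~0.0313-0.500 kg/ha a.i.; greenhouse 3-4 wk; visual 0-9 score vs control.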

AMBEL (Ragweed, Common) = experiment: Preemergence herbicidal evaluation; type: in vivo, Ambrosia artemisifolia; conditions: rated 4-5 weeks after treatment, rating scale 0-9
Procedure, shortened: as §2

[2] = system: TRZAWR (Wheat, Winter, cv Riband); experiment: Preemergence herbicidal evaluation; type: in vivo, Triticum aestivum; conditions: rated 4-5 weeks after treatment, rating scale 0-9
Procedure, shortened: as §2

[3] = system: IPOHE (Morningglory, Ivyleaf); experiment: Preemergence herbicidal evaluation; type: in vivo, Ipomoea hederacea; conditions: rated 4-5 weeks after treatment, rating scale 0-9
Procedure, shortened: as §2

ZEAMX (Corn, Field) [4] = experiment: Preemergence herbicidal evaluation; type: in vivo, Zea mays; conditions: rated 4-5 weeks after treatment, rating scale 0-9
Procedure, shortened: as §2

ZEAMX (Corn, Field) [5] = experiment: Postemergence herbicidal evaluation; type: in vivo, Zea mays; conditions: postemergence
Procedure, shortened: as §1

[6] = system: ECHORC (Watergrass (Calif.)); experiment: Preemergence weed control under flooded paddy conditions; type: in vivo, Echinochloa oryzoides; conditions: rated 3-4 weeks after treatment
Procedure, shortened: (§3)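 Ratings on a 0-9 visual scale cover stand, vigor, malformation, size, chlorosis and overall appearance relative to a control, taken three to four weeks post-treatment. Application was into flood water over freshly sown silt loam at roughly 0.0313 to 0.500 kg/ha.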

ORYSAT (Rice, Tebonnet) = experiment: Preemergence herbicidal evaluation; type: in vivo, Oryza sativa, (L.) Tebonnet; conditions: rated 4-5 weeks after treatment, rating scale 0-9
Procedure, shortened: as §2

CYPIR (Rice Flatsedge) = experiment: Preemergence weed control under flooded paddy conditions; type: in vivo, Cyperus iria; conditions: rated 3-4 weeks after treatment
Procedure, shortened: as §3

CASOB (Sicklepod) = experiment: Postemergence herbicidal evaluation; type: in vivo, Cassia obtusifolia; conditions: postemergence
Procedure, shortened: as §1

Cn1c(C(F)(F)F)cc(=O)n(-c2cc(N=C3SCC(=O)N3Cc3cccc(C(F)(F)F)c3)c(Cl)cc2F)c1=O [Compound 142, 3-{4-Chloro-2-fluoro-5-{{3-[m-(trifluoromethyl)benzyl]-4-oxo-2-thiazolidinylidene}-amino}phenyl}-1-methyl-6-(trifluoromethyl)-2,4(1H,3H)-pyrimidinedione]
herbicidal rating GALAP (GALAP (Galium); rate 0.0156 kg/ha): 0.0
herbicidal rating GALAP (GALAP (Galium); rate 0.0313 kg/ha): 1.0
herbicidal rating GALAP (GALAP (Galium); rate 0.0625 kg/ha): 1.0
Preemergence herbicidal rating CHEAL ([1]; rate 0.0156 kg/ha): 4.0
Preemergence herbicidal rating CHEAL ([1]; rate 0.0313 kg/ha): 3.0
Preemergence herbicidal rating CHEAL ([1]; rate 0.0625 kg/ha): 9.0
Preemergence herbicidal rating CHEAL ([1]; rate 0.1250 kg/ha): 9.0
Preemergence herbicidal rating CHEAL ([1]; rate 0.2500 kg/ha): 9.0
herbicidal effect rating, CYPSE (CYPSE (Flatsedge); 0.1250 kg/ha): 0.0
herbicidal effect rating, CYPSE (CYPSE (Flatsedge); 0.2500 kg/ha): 0.0
Preemergence herbicidal rating AMBEL (AMBEL (Ragweed, Common); rate 0.0156 kg/ha): 0.0
Preemergence herbicidal rating AMBEL (AMBEL (Ragweed, Common); rate 0.0313 kg/ha): 0.0
Preemergence herbicidal rating AMBEL (AMBEL (Ragweed, Common); rate 0.0625 kg/ha): 4.0
Preemergence herbicidal rating AMBEL (AMBEL (Ragweed, Common); rate 0.1250 kg/ha): 2.0
Preemergence herbicidal rating AMBEL (AMBEL (Ragweed, Common); rate 0.2500 kg/ha): 1.0
Preemergence herbicidal rating TRZAWR ([2]; rate 0.0156 kg/ha): 0.0
Preemergence herbicidal rating TRZAWR ([2]; rate 0.0313 kg/ha): 0.0
Preemergence herbicidal rating TRZAWR ([2]; rate 0.0625 kg/ha): 0.0
Preemergence herbicidal rating TRZAWR ([2]; rate 0.1250 kg/ha): 0.0
Preemergence herbicidal rating TRZAWR ([2]; rate 0.2500 kg/ha): 0.0
Preemergence herbicidal rating IPOHE ([3]; rate 0.0156 kg/ha): 0.0
Preemergence herbicidal rating IPOHE ([3]; rate 0.0313 kg/ha): 0.0
Preemergence herbicidal rating IPOHE ([3]; rate 0.0625 kg/ha): 0.0
Preemergence herbicidal rating IPOHE ([3]; rate 0.1250 kg/ha): 1.0
Preemergence herbicidal rating IPOHE ([3]; rate 0.2500 kg/ha): 2.0
Preemergence herbicidal rating ZEAMX (ZEAMX (Corn, Field) [4]; rate 0.0156 kg/ha): 0.0
Preemergence herbicidal rating ZEAMX (ZEAMX (Corn, Field) [4]; rate 0.0313 kg/ha): 0.0
Preemergence herbicidal rating ZEAMX (ZEAMX (Corn, Field) [4]; rate 0.0625 kg/ha): 0.0
Preemergence herbicidal rating ZEAMX (ZEAMX (Corn, Field) [4]; rate 0.1250 kg/ha): 2.0
Preemergence herbicidal rating ZEAMX (ZEAMX (Corn, Field) [4]; rate 0.2500 kg/ha): 2.0
herbicidal rating ZEAMX (ZEAMX (Corn, Field) [5]; rate 0.0156 kg/ha): 4.0
herbicidal rating ZEAMX (ZEAMX (Corn, Field) [5]; rate 0.0313 kg/ha): 4.0
herbicidal rating ZEAMX (ZEAMX (Corn, Field) [5]; rate 0.0625 kg/ha): 4.5
herbicidal effect rating, ECHORC ([6]; 0.0313 kg/ha): 4.0
herbicidal effect rating, ECHORC ([6]; 0.0625 kg/ha): 5.0
herbicidal effect rating, ECHORC ([6]; 0.1250 kg/ha): 7.0
herbicidal effect rating, ECHORC ([6]; 0.2500 kg/ha): 7.0
Preemergence herbicidal rating ORYSAT (ORYSAT (Rice, Tebonnet); rate 0.0156 kg/ha): 0.0
Preemergence herbicidal rating ORYSAT (ORYSAT (Rice, Tebonnet); rate 0.0313 kg/ha): 0.0
Preemergence herbicidal rating ORYSAT (ORYSAT (Rice, Tebonnet); rate 0.0625 kg/ha): 0.0
Preemergence herbicidal rating ORYSAT (ORYSAT (Rice, Tebonnet); rate 0.1250 kg/ha): 1.0
Preemergence herbicidal rating ORYSAT (ORYSAT (Rice, Tebonnet); rate 0.2500 kg/ha): 0.0
herbicidal effect rating, CYPIR (CYPIR (Rice Flatsedge); 0.0313 kg/ha): 0.0
herbicidal effect rating, CYPIR (CYPIR (Rice Flatsedge); 0.0625 kg/ha): 2.0
herbicidal effect rating, CYPIR (CYPIR (Rice Flatsedge); 0.1250 kg/ha): 6.0
herbicidal effect rating, CYPIR (CYPIR (Rice Flatsedge); 0.2500 kg/ha): 7.0
herbicidal rating CASOB (CASOB (Sicklepod); rate 0.0156 kg/ha): 0.0
herbicidal rating CASOB (CASOB (Sicklepod); rate 0.0313 kg/ha): 1.0
herbicidal rating CASOB (CASOB (Sicklepod); rate 0.0625 kg/ha): 3.0
